{"source": "paper PMC2211560", "about": "(PLoS Medicine, 2008)", "key": {"[1]": {"settings": "human, in vivo, cited from earlier work"}, "[2]": {"settings": "in vivo", "description": "Adverse events were evaluated according to the National Cancer Institute Common Toxicity Criteria, version 2 (http://ctep.info.nih.gov/reporting/index.html).\nThe first three patients were enrolled at the initial dose level of 2 mg per day. After a four week evaluation period for dose limiting toxicity, a minimum of 3 more patients could be enrolled at the next dose level. […] Presurgical dosing included the loading dose followed by the daily maintenance dose until surgery. After the patient recovered from the effects of surgery, identical loading and maintenance doses (e.g., 6 mg and 2 mg, respectively) were administered. […] Assessment of drug safety was done following a routine schedule and supplemented by additional evaluation whenever a patient reported a new symptom. […] Toxicities were graded according to the National Cancer Institute Common Toxicity Criteria version 2.0. Treatments were held until recovery to ≤ grade 1 toxicity for ANC < 1000/µl, platelets < 80,000/ µl, grade 3 or grade 4 non-hematologic toxicities, and grade 4 hypercholesterolemia or hypertryglyceridemia. […] A 50 % dose reduction was made for ANC < 750/µl, platelets < 50,000/µl, or grade 4 non-hematological AE. Patients were allowed two dose reductions."}, "[3]": {"settings": "cited from earlier work; for mucosal HERPES SIMPLEX infections, patients: phase III trial, with cyclosporine and corticosteroids, ref MacDonald et al, 2001"}, "Akt": {"system": "Akt", "experiment": "PRAS40 (threonine 246) phosphorylation in tumor tissue by IHC", "assay_type": "in vivo, human", "settings": "for pPRAS 40 Induction: statistically significant increase S2 vs S1 (p < 0.05, Wilcoxon), individual patients", "excerpt": "The following antibodies were used for IHC: anti-PTEN (6H2.1, #ABM-2052, Cascade BioScience; 1:400 dilution), anti-Ki-67 (MIB-1, M7240, DakoCytomation; 1:100 Dilution), anti-phospho Ser235/236 S6 (91B2, #4857, Cell Signaling; 1:50 dilution), anti phospho Ser240/244 S6 (#2215, Cell Signaling; 1:200 dilution), anti-phospho-PRAS 40 (#44–1100G, Biosource; 1:200 dilution), anti-phospho Ser473 Akt (736E11, #3787, Cell Signaling; 1:50 dilution), anti-phospho Thr389 p70 S6 Kinase (#9205, Cell Signaling; 1:100 Dilution), and anti phospho Ser1108 eIF4G at 1:400 (#2441, Cell Signaling; 1:400 dilution). Antigen retrieval was performed using 0.01 M citrate buffer, pH 6.0 for 30 min in an oven and peroxidase activity was quenched with 3% hydrogen peroxide in water. Primary antibodies were diluted in PBS /2% bovine serum albumin/2% normal horse serum (for anti-PTEN) or TBS/0.1% Tween/5% normal goat serum (for phosphosite-specific antibodies) and applied overnight at 4 °C. Biotinylated secondary antibodies (Vector) were applied at 1:200 dilution for 45 min, and the avidin-biotin complex (Elite ABC, Vector) for 30 min. Vector NovaRed was used as the enzyme substrate to visualize specific antibody localization. […] All slides were counterstained with Harris hematoxylin.\nWe assessed Akt activity in S1 and S2 samples in the rapamycin-treated patients using phosphosite-specific antibodies against the serine/threonine kinase Akt (serine 473) and its downstream substrate PRAS 40 (threonine 246), which serves as a biomarker for Akt activity (Figure 4A). PRAS40 has also been recently shown to inhibit mTOR, and this inhibition is relieved by Akt phosphorylation.\nScoring of immunohistochemical stains. […] Digital scores for PTEN, phospho-S6, and phospho-PRAS40 are based on absolute staining intensity of tumor cells as quantified following false-color conversion. PTEN, phospho-S6, phospho-PRAS40, and Ki-67 were scored in representative and matching areas of consecutive tissue sections (Suppl. Fig. 1), excluding areas with large vessels and/or prominent reactive changes (e.g., reactive astrogliosis or lymphocytic infiltration). […] Quantitative analysis was done using HSI color algorithm based on hue, saturation and intensity. Saturations of the separated cell in the images were quantified in the red-brown hue range to exclude the negative staining area with hematoxylin nuclear staining. To compare the staining intensity of all slides, mean saturation of total cells on each image was quantified and calculated. For Ki-67 staining scoring, separated cells were quantified with red brown hue range (positive staining) and total hue range (all cells) after cell border separation and Ki-67 labeling index was calculated based on these numbers. […]"}, "PTEN-null cell lines": {"system": "PTEN-null cell lines", "design": "method as in PMID 11504908, PMID 11566616", "settings": "PTEN-null cell lines in vitro; cited from earlier work"}}, "note": "Like-named read-outs stand apart in the source and are kept apart here."}
{"compound": "CO[C@H]1C[C@@H]2CC[C@@H](C)[C@@](O)(O2)C(=O)C(=O)N2CCCC[C@H]2C(=O)O[C@H]([C@H](C)C[C@@H]2CC[C@@H](O)[C@H](OC)C2)CC(=O)[C@H](C)/C=C(\\C)[C@@H](O)[C@@H](OC)C(=O)[C@H](C)C[C@H](C)/C=C/C=C/C=C/1C", "note": "[Rapamycin]", "values": [{"measurement": "Vdss", "setting": "[1]; iv", "value": "1.1 to 1.3", "unit": "L/kg"}, {"measurement": "half-life", "setting": "[1]", "value": "40 to 60", "unit": "h"}, {"measurement": "grade 3 or 4 toxicities", "setting": "[2]; human", "value": "No grade 3 or 4 toxicities"}, {"measurement": "patients with grade 3 adverse events (hypokalemia, hypercholesterolemia, and cytopenias)", "setting": "[2]; human", "value": "Five of 15"}, {"measurement": "patients with grade 3 adverse events (hypokalemia, hypercholesterolemia, and cytopenias)", "setting": "[2]", "value": "five"}, {"measurement": "perioperative bleeding complications", "setting": "[2]", "value": "no perioperative bleeding complications"}, {"measurement": "ANEMIA, patients", "setting": "[3]; human, in vivo", "value": "27-37%"}, {"measurement": "ARTHRALGIA", "setting": "[3]; human, in vivo", "value": "25-31%"}, {"measurement": "CONSTIPATION", "setting": "[3]; human, in vivo", "value": "28-36%"}, {"measurement": "DIARRHEA", "setting": "[3]; human, in vivo", "value": "25-42%"}, {"measurement": "DYSPEPSIA", "setting": "[3]; human, in vivo", "value": "17-25%"}, {"measurement": "DYSPNEA, patients", "setting": "[3]; human, in vivo", "value": "22-30%"}, {"measurement": "EPISTAXIS, patients", "setting": "[3]; human, in vivo", "value": 9, "unit": "%"}, {"measurement": "HEADACHE, patients", "setting": "[3]; human, in vivo", "value": "23-34%"}, {"measurement": "HYPERTENSION, patients", "setting": "[3]; human, in vivo", "value": "43-45%"}, {"measurement": "HYPOKALEMIA, patients", "setting": "[3]; human, in vivo", "value": "11-21%"}, {"measurement": "HYPOPHOSPHATEMIA, patients", "setting": "[3]; human, in vivo", "value": "15-23%"}, {"measurement": "Hyperlipidemia", "setting": "[3]; human, in vivo", "value": "38-57%"}, {"measurement": "NAUSEA", "setting": "[3]; human, in vivo", "value": "25-36%"}, {"measurement": "Normalization of platelet counts after discontinuation", "setting": "[3]; human, in vivo", "value": "≤ 2", "unit": "weeks"}, {"measurement": "Peripheral EDEMA, patients", "setting": "[3]; human, in vivo", "value": "54-64%"}, {"measurement": "Posttransplant lymphoproliferative disease (PTLD)", "setting": "[3]; human, in vivo", "value": 0.8, "unit": "%"}, {"measurement": "THROMBOCYTOPENIA, patients", "setting": "[3]; human, in vivo", "value": "13-30%"}, {"measurement": "VOMITING", "setting": "[3]; human, in vivo", "value": "19-25%"}, {"measurement": "arthralgia, patients", "setting": "[3]; human, in vivo", "value": 23, "unit": "%"}, {"measurement": "hypercholesterolemia", "setting": "[3]; human, in vivo", "value": "38-46%"}, {"measurement": "insomnia, patients", "setting": "[3]; human, in vivo", "value": "13-22%"}, {"measurement": "patients with triglyceride levels exceeding 5 mmol/L", "setting": "[3]; human, in vivo", "value": 75, "unit": "%"}, {"measurement": "total cholesterol mean peak", "setting": "[3]; human, in vivo", "value": 12, "unit": "mmol/L"}, {"measurement": "tremor, patients", "setting": "[3]; human, in vivo", "value": "21-31%"}, {"measurement": "mucosal HERPES SIMPLEX infections, patients", "setting": "[3]; sirolimus 2 mg/day", "value": 10, "unit": "%"}, {"measurement": "mucosal HERPES SIMPLEX infections, patients", "setting": "[3]; sirolimus 5 milligrams (mg)/day", "value": 19, "unit": "%"}, {"measurement": "pPRAS 40 Induction", "setting": "Akt; 2 mg oral daily", "value": "Yes"}, {"measurement": "pPRAS 40 Induction", "setting": "Akt; 5 mg oral daily", "value": "No and Yes"}, {"measurement": "pPRAS 40 Induction", "setting": "Akt; 10 mg oral daily", "value": "Yes and No"}, {"measurement": "patients with statistically significant increase in PRAS40 phosphorylation in S2 sample", "setting": "Akt; Seven of 14 patients, p < 0.05, Wilcoxon test", "value": 50, "unit": "%"}, {"measurement": "Rapamycin concentrations known to confer antiproliferative activity", "setting": "PTEN-null cell lines", "value": "~1", "unit": "nM"}]}
